Results: US7709473B2, “Substituted 2H-[1,2,4]triazolo[4,3-a]pyrazines as GSK-3 inhibitors” (Pfizer Inc., priority 2004, dated 2010)
pIC50: −log10 of the molar value.

Biological target: GSK-3 (Homo sapiens, UniProt P49841)
Assay: GSK-3 inhibition, cell-free 33P-ATP peptide substrate SPA assay
Type: biochemical
Conditions: read-out: inhibitory activity against GSK-3, expressed as IC50
Description: The specific activities of the compounds of formula (I) in inhibiting GSK-3 can be determined in both cell-free and cell-based assays, both of which have been previously described in the relevant art. See, for example, U.S. Pat. Nos. 6,417,185 and 6,489,344, the disclosures of which are incorporated herein by reference in their entirety.
A cell-free testing assay can be generally carried out by incubating GSK-3 with a peptide substrate, radiolabeled ATP (e.g., for example, γ^33P- or γ^32P-ATP, both of which are available from Amersham; Arlington Heights, Ill.), magnesium ions, and the compound to be assayed. […] The amount of γ^33P or γ^32P remaining in each well after washing is then quantified to determine the amount of radiolabeled phosphate incorporated into the peptide substrate. […]
Another example of a GSK-3 testing assay, similar to the one described hereinabove, is as follows: enzyme activities are assayed as the incorporation of ^33P from the gamma phosphate of ^33P-ATP (Amersham; Arlington Heights, Ill.; catalog #AH-9968) into biotinylated peptide substrate PKTP-KKAKKL. […] The final concentration of ATP is 0.5 μM (final specific radioactivity of 4 μCi/nmol), and the final concentration of substrate is 0.75 μM. […] Radioactivity associated with the beads is then quantified by standard scintillation counting. […]

Chain of GSK-3 (P49841 whole entry): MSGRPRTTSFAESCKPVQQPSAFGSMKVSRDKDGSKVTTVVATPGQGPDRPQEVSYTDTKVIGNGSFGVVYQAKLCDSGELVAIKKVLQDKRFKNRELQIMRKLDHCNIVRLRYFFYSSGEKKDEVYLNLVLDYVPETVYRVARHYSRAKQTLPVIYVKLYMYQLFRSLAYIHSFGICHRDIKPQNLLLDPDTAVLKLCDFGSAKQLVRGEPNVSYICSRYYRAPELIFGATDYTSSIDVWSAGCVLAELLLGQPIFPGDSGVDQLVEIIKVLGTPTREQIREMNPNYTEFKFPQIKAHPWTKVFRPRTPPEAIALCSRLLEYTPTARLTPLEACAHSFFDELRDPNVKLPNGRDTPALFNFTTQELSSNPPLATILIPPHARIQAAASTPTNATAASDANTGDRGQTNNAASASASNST

Compound: COc1ccc(OCCNc2nc(C(C)(C)C)cn3c(=O)[nH]nc23)cc1 [Example 218, 6-tert-Butyl-8-[2-(4-methoxy-phenoxy)-ethylamino]-2H-[1,2,4]triazolo[4,3-a]pyrazin-3-one]
- pIC50: 8.32
